Data as given in ChEMBL document CHEMBL1759893, “1,4-Diazepane compounds as potent and selective CB2 agonists: optimization of metabolic stability” (Bioorg Med Chem Lett, 2011).
Converted amounts (≈) assume the structure as drawn.

What was measured:
[1] = species: Rattus norvegicus; assay: Hepatic blood flow in rat; format: ADME, organism-based, Liver
[2] = Aqueous solubility of the compound at pH 7.4; format: physicochemical; settings: buffer
[3] = species: Homo sapiens; assay: Hepatic blood flow in human; format: ADME, organism-based, Liver
[4] = AUC (0 to infinity) in Wistar rat at 10 umol/kg, po; format: ADME, organism-based, Wister; design: dose 10 umol/kg, route oral, time infinity; settings: plasma
[5] = Cmax in Wistar rat at 10 umol/kg, po; format: ADME, organism-based, Wister; design: dose 10 umol/kg, route oral; settings: in vivo
[6] = Oral bioavailability in Wistar rat at 10 umol/kg; format: ADME, organism-based, Wister; settings: in vivo
[7] = Volume of distribution at steady state in Wistar rat at 1 umol/kg, iv; format: ADME, organism-based, Wister; settings: in vivo, read-out: Vdss

Structure (SMILES) | QH [1] | solubility [2] | QH [3] | AUC(0-inf) [4] | Cmax [5] | bioavailability [6] | Vd [7]
CC(C)(C)c1cc(NC(=O)N2CCCN(C(=O)N3CCS(=O)(=O)CC3)CC2)no1 | 42% | 18 µg/mL (≈ 42.1 µM) | < 24% | – | – | – | –
CC(C)(C)c1cc(NC(=O)N2CCCN(C(=O)C3CCOCC3)CC2)no1 | 35% | > 37 µg/mL | < 24% | 1.38 µM·h | 1760 ng/mL | 28% | 0.87 L/kg
CCCCc1ccc(NC(=O)N2CCCN(C(=O)CCC3CCCC3)CC2)cc1 | – | 3 µg/mL (≈ 7.51 µM) | – | – | – | – | –
CC(C)(C)c1cc(NC(=O)N2CCCN(C(=O)C3CCOCC3)CC2)on1 | < 23% | > 37 µg/mL | < 24% | – | – | – | –
CC(C)(C)c1cc(NC(=O)N2CCCN(C(=O)CN3CCS(=O)(=O)CC3)CC2)no1 | 27% | > 96 µg/mL | 50% | – | – | – | –
